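96-well plates; 48 h exposure; 5 concentrations. Endpoints by linear interpolation between flanking doses. Not reached: highest tested concentration assigned. GI50 marks 50% less growth.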 The source made the active and inactive calls. Cut-off read from the data, not from the text of the source: active = GI50 up to about 1.1 µM and inactive = higher.
What was measured:
Assay in all cases: inhibition of tumour cell growth, NCI panel, 48 h
[1] = test system: 786-0
[2] = test system: A498
[3] = test system: A549
[4] = test system: ACHN
[5] = test system: BT-549
[6] = test system: CAKI-1
[7] = test system: CCRF-CEM
[8] = test system: COLO 205
[9] = test system: DU-145
[10] = test system: EKVX
[11] = test system: HCC 2998
[12] = test system: HCT-116
[13] = test system: HCT-15
[14] = test system: HL-60
[15] = test system: HOP-62
[16] = test system: HT-29
[17] = test system: Hs-578T
[18] = test system: IGROV-1
[19] = test system: K562
[20] = test system: KM12
[21] = test system: LOX IMVI
[22] = test system: M14
[23] = test system: MCF7
[24] = test system: MDA-MB-231
[25] = test system: MDA-MB-435
[26] = test system: MDA-N
[27] = test system: MOLT-4
[28] = test system: Malme-3M
[29] = test system: NCI-H226
[30] = test system: NCI-H23
[31] = test system: NCI-H460
[32] = test system: NCI-H522
[33] = test system: NCI/ADR-RES
[34] = test system: OVCAR-3
[35] = test system: OVCAR-4
[36] = test system: OVCAR-5
[37] = test system: OVCAR-8
[38] = test system: PC-3
[39] = test system: RPMI-8226
[40] = test system: SF-268
[41] = test system: SF-295
[42] = test system: SF-539
[43] = test system: SK-MEL-2
[44] = test system: SK-MEL-5
[45] = test system: SK-OV-3
[46] = test system: SN12C
[47] = test system: SNB-19
[48] = test system: SNB-75
[49] = test system: SR
[50] = test system: SW-620
[51] = test system: T47D
[52] = test system: TK-10
[53] = test system: U-251
[54] = test system: UACC-257
[55] = test system: UACC-62
[56] = test system: UO-31
[57] = test system: HOP-92
[58] = test system: RXF 393
[59] = test system: SK-MEL-28

## NC(=O)c1nnc2ccc(F)cc2c1N
[1]
  GI50: > 100 µM (inactive)
[2]
  GI50: > 100 µM (inactive)
[3]
  GI50: > 100 µM (inactive)
[4]
  GI50: 88.9 µM (inactive)
[5]
  GI50: 68.4 µM (inactive)
[6]
  GI50: > 100 µM (inactive)
[7]
  GI50: > 100 µM (inactive)
[8]
  GI50: > 100 µM (inactive)
[9]
  GI50: > 100 µM (inactive)
[10]
  GI50: > 100 µM (inactive)
[11]
  GI50: > 100 µM (inactive)
[12]
  GI50: > 100 µM (inactive)
[13]
  GI50: > 100 µM
[14]
  GI50: > 100 µM (inactive)
[15]
  GI50: > 100 µM (inactive)
[16]
  GI50: > 100 µM (inactive)
[17]
  GI50: > 100 µM (inactive)
[18]
  GI50: > 100 µM (inactive)
[19]
  GI50: > 100 µM (inactive)
[20]
  GI50: > 100 µM (inactive)
[21]
  GI50: 69 µM (inactive)
[22]
  GI50: > 100 µM (inactive)
[23]
  GI50: > 100 µM (inactive)
[24]
  GI50: > 100 µM (inactive)
[25]
  GI50: > 100 µM (inactive)
[26]
  GI50: > 100 µM (inactive)
[27]
  GI50: > 100 µM (inactive)
[28]
  GI50: > 100 µM (inactive)
[29]
  GI50: 7.57 µM (inactive)
[30]
  GI50: > 100 µM (inactive)
[31]
  GI50: > 100 µM (inactive)
[32]
  GI50: 94.6 µM (inactive)
[33]
  GI50: > 100 µM (inactive)
[34]
  GI50: > 100 µM (inactive)
[35]
  GI50: > 100 µM (inactive)
[36]
  GI50: 70 µM (inactive)
[37]
  GI50: > 100 µM (inactive)
[38]
  GI50: > 100 µM (inactive)
[39]
  GI50: > 100 µM (inactive)
[40]
  GI50: > 100 µM (inactive)
[41]
  GI50: > 100 µM (inactive)
[42]
  GI50: > 100 µM (inactive)
[43]
  GI50: > 100 µM (inactive)
[44]
  GI50: > 100 µM (inactive)
[45]
  GI50: 87.5 µM (inactive)
[46]
  GI50: > 100 µM (inactive)
[47]
  GI50: > 100 µM (inactive)
[48]
  GI50: > 100 µM (inactive)
[49]
  GI50: > 100 µM (inactive)
[50]
  GI50: > 100 µM (inactive)
[51]
  GI50: > 100 µM (inactive)
[52]
  GI50: 68.7 µM (inactive)
[53]
  GI50: > 100 µM (inactive)
[54]
  GI50: > 100 µM (inactive)
[55]
  GI50: > 100 µM (inactive)
[56]
  GI50: 40.3 µM (inactive)

## CC(=O)NC1=C(NCCCl)C(=O)c2ccccc2C1=O
[1]
  GI50: 50.5 µM (inactive)
[3]
  GI50: 35.4 µM (inactive)
[4]
  GI50: 42.8 µM (inactive)
[5]
  GI50: 47.9 µM (inactive)
[7]
  GI50: 19.1 µM (inactive)
[8]
  GI50: 28.4 µM (inactive)
[9]
  GI50: 30.5 µM (inactive)
[10]
  GI50: > 100 µM (inactive)
[11]
  GI50: 32.7 µM (inactive)
[12]
  GI50: 20.5 µM (inactive)
[13]
  GI50: 32.1 µM
[14]
  GI50: > 10 µM (inactive)
[15]
  GI50: 64 µM (inactive)
[57]
  GI50: 56.6 µM (inactive)
[16]
  GI50: 26.4 µM (inactive)
[17]
  GI50: 43.5 µM (inactive)
[18]
  GI50: 39.8 µM (inactive)
[19]
  GI50: 27.9 µM (inactive)
[20]
  GI50: 31.8 µM (inactive)
[22]
  GI50: 13 µM (inactive)
[23]
  GI50: 35.2 µM (inactive)
[24]
  GI50: 36.7 µM (inactive)
[25]
  GI50: 16.6 µM (inactive)
[26]
  GI50: 21.4 µM (inactive)
[27]
  GI50: 25.1 µM (inactive)
[28]
  GI50: 13.9 µM (inactive)
[29]
  GI50: 49.1 µM (inactive)
[30]
  GI50: 26.1 µM (inactive)
[31]
  GI50: 32.1 µM (inactive)
[32]
  GI50: 20.5 µM (inactive)
[33]
  GI50: 29.5 µM (inactive)
[34]
  GI50: 49.5 µM (inactive)
[35]
  GI50: 44.6 µM (inactive)
[36]
  GI50: 81.8 µM (inactive)
[37]
  GI50: 20 µM (inactive)
[38]
  GI50: 22.3 µM (inactive)
[39]
  GI50: 40.9 µM (inactive)
[58]
  GI50: 30 µM (inactive)
[40]
  GI50: 59.8 µM (inactive)
[41]
  GI50: 37.4 µM (inactive)
[42]
  GI50: 40.8 µM (inactive)
[59]
  GI50: 72.3 µM (inactive)
[44]
  GI50: 16.9 µM (inactive)
[45]
  GI50: 59.2 µM (inactive)
[46]
  GI50: 34.7 µM (inactive)
[47]
  GI50: 58.3 µM (inactive)
[48]
  GI50: 24.3 µM (inactive)
[49]
  GI50: 30.8 µM (inactive)
[50]
  GI50: 25.4 µM (inactive)
[51]
  GI50: 25.1 µM (inactive)
[53]
  GI50: 39.1 µM (inactive)
[54]
  GI50: 15 µM (inactive)
[55]
  GI50: 20 µM (inactive)

— ChEMBL document CHEMBL1201862, “PubChem BioAssay data set” (2004)
